Test results as given in US20060014712A1, “Controlled delivery of therapeutic compounds” (CeMines, Inc., priority 2004, published 2006).

Key:
Dct/Trp2 promoter [1] = test: Transient CAT assay, Dct/Trp2 proximal promoter-CAT construct in SK-MEL-28; format: cell-based, human; details: CPP concentration 10 μM
Experimental: (§1) SOX10 and MITF interact with the proximal promoter of Dct/Trp2 gene and induces its activity (Ludwig A. et al., FEBS Lett. 556 (1-3):236-244 (2004)). Thus, a Dct/Trp2 proximal promoter reporter construct was used to analyze effect of mimicking peptides on promoter activity using transient CAT assay.
(§2) Methods. Human melanoma cell lines SK-MEL-28 and WM 266-4 were obtained from the American Tissue Culture Collection (ATCC) and were cultured according to recommendations of ATCC (DMEM, 10% FCS, penicillin+streptomycin). Dct/Trp2 proximal promoter-CAT construct (Ludwig et al., supra) was used in all experiments.
(§3) Cells were transfected by using FuGene reagent (Roche Molecular Biochemicals) according to manufacturer's instructions. Freeze-thaw lysates of cells collected 48 h after the transfection were assayed for CAT activity as described (Pothier, F. et al., DNA Cell Biol. 11(1):83-90 (1992)). At least two different DNA preparations were tested for each plasmid. To normalize the transfection efficiencies, cells were cotransfected with pON260 expressing β-galactosidase (Spaete, R. R. and Mocarski, E. S., J. Virol. 54(3):817-24 (1985); Spaete, R. R. and Mocarski, E. S., J. Virol. 56(1):13543 (1985)). All the CAT activities were normalized to total protein and β-galatosidase activity.
(§4) Following transfection, cells were grown in 6 well plates, each treatment in triplicates. Peptides were added to the media and media was changed every day during the 7 day experiment. CPP concentration was 10 μM.

SK-MEL-28 [2] = test: WST-1 test (mitochondrial activity); format: cell-based, human; details: conc 10 µM, untreated = 1
WM 266-4 [3] = test: Apoptosis, Annexin V-Cy3 Apoptosis Kit; format: cell-based, human; details: CPP mimicking peptides, conc 10 µM
Experimental: (§5) Methods. Human melanoma cell lines SK-MEL-28 and WM 2664 and mouse melanoma cell line B16 were obtained from the American Tissue Culture Collection (ATCC). Cells were cultured according to recommendations of ATCC (DMEM, 10% FCS, penicillin+streptomycin) and used in experiments after two passages in the laboratory. Cells were grown in 24 well plates, each treatment in triplicates. Cells were plated 16 hours prior treatments started. Peptides were added to the media, and media was changed every day during 7 day experiment. […] Methods. Human melanoma cell lines SK-MEL-28 and WM 266-4 were obtained from the American Tissue Culture Collection (ATCC) and were cultured according to recommendations of ATCC (DMEM, 10% FCS, penicillin+streptomycin). Human keratinocytes were obtained from Clonetics and cultured according to manufacturers protocol. Cells were used in experiments after two passages in the laboratory. Cells were grown in 24 well plates, each treatment in triplicates. Cells were plated 16 hours prior treatments started. Peptides were added to the media, and media was changed every day during 7 day experiment. […] Apoptosis was analyzed using Biovision Annexin V-Cy3 Apoptosis Kit according to manufacturers protocols.

B16 [4] = test: Cell counting after 7 day peptide treatment; format: cell-based, mouse; details: CPP mimicking peptides, conc 10 µM, start count 10
Experimental: The ability to block interaction of MITF, SOX10 and STAT3 with active transcriptional complex and inhibit proliferation and stimulate apoptosis of melanoma cells were tested on human melanoma cell lines SK-MEL-28 and WM 266-4, and mouse melanoma cell line B16. Methods. Human melanoma cell lines SK-MEL-28 and WM 2664 and mouse melanoma cell line B16 were obtained from the American Tissue Culture Collection (ATCC). Cells were cultured according to recommendations of ATCC (DMEM, 10% FCS, penicillin+streptomycin) and used in experiments after two passages in the laboratory. Cells were grown in 24 well plates, each treatment in triplicates. Cells were plated 16 hours prior treatments started. Peptides were added to the media, and media was changed every day during 7 day experiment. […] Cells were precipitated and resuspended in 100 μl of PBS, and 5 μl were removed for counting

SK-MEL-28 [5] = test: Cell counting after 7 day peptide treatment; format: cell-based, human; details: conc 10 µM, start count 10
Experimental: (§6) The ability to block interaction of MITF, SOX10 and STAT3 with active transcriptional complex and inhibit proliferation and stimulate apoptosis of melanoma cells were tested on human melanoma cell lines SK-MEL-28 and WM 266-4, and mouse melanoma cell line B16. Methods. Human melanoma cell lines SK-MEL-28 and WM 2664 and mouse melanoma cell line B16 were obtained from the American Tissue Culture Collection (ATCC). Cells were cultured according to recommendations of ATCC (DMEM, 10% FCS, penicillin+streptomycin) and used in experiments after two passages in the laboratory. Cells were grown in 24 well plates, each treatment in triplicates. Cells were plated 16 hours prior treatments started. Peptides were added to the media, and media was changed every day during 7 day experiment. CPP concentration was 10 μM For cell counting, cells were trypsinized (0.25% Trypsin, 2 mM EDTA) in Ca^+2, Mg^+2 free PBS. Cells were precipitated and resuspended in 100 μl of PBS, and 5 μl were removed for counting Methods. Human melanoma cell lines SK-MEL-28 and WM 266-4 were obtained from the American Tissue Culture Collection (ATCC) and were cultured according to recommendations of ATCC (DMEM, 10% FCS, penicillin+streptomycin). Human keratinocytes were obtained from Clonetics and cultured according to manufacturers protocol. Cells were used in experiments after two passages in the laboratory. Cells were grown in 24 well plates, each treatment in triplicates. Cells were plated 16 hours prior treatments started. Peptides were added to the media, and media was changed every day during 7 day experiment. CPP concentration was 10 μM. For cell counting, cells were trypsinized (0.25% Trypsin, 2 mM EDTA) in Ca, Mg free PBS. Cells were precipitated and resuspended in 100 μl of PBS, and 5 μl were removed for counting.

Dct/Trp2 promoter [6] = test: Transient CAT assay, Dct/Trp2 proximal promoter-CAT construct in WM 266-4; format: cell-based, human; details: CPP concentration 10 μM
Experimental: as §1, §2, §3, §4

WM 266-4 [7] = test: Cell counting after 7 day peptide treatment; format: cell-based, human; details: conc 10 µM, start count 10
Experimental: as §6, with “CPP concentration was 10 μM For cell counting, cells were trypsinized (0.25% Trypsin, 2 mM EDTA) in Ca^+2, Mg^+2 free PBS.” left out, “CPP concentration was 10 μM.” left out

B16 [8] = test: Apoptosis, Annexin V-Cy3 Apoptosis Kit; format: cell-based, mouse; details: CPP mimicking peptides, conc 10 µM
Experimental: Methods. Human melanoma cell lines SK-MEL-28 and WM 2664 and mouse melanoma cell line B16 were obtained from the American Tissue Culture Collection (ATCC). Cells were cultured according to recommendations of ATCC (DMEM, 10% FCS, penicillin+streptomycin) and used in experiments after two passages in the laboratory. Cells were grown in 24 well plates, each treatment in triplicates. Cells were plated 16 hours prior treatments started. Peptides were added to the media, and media was changed every day during 7 day experiment. CPP concentration was 10 μM Apoptosis was analyzed using Biovision Annexin V-Cy3 Apoptosis Kit according to manufacturers protocols.

B16 melanoma = test: Mouse tumor xenograft model, peptide membrane patch on skin melanoma; format: in vivo; details: patch immersed in 100 μM peptide solution, start = 100; for tumor size change (%) 1 d: B16 s.c. in C57BL/6 mice
Experimental: The effect of modified mimicking peptides was analyzed by inducing melanomas in mouse skin by grafting suspension of melanoma cells. […] Tumor diameter was measured 1, 2, 3, 5, 7 days after treatmet started.
Methods. Mouse melanoma cell line B16 was cultured as described above, and approximately 5×10^6 cells were injected subcutaneously into the left and right limbs of three C57BL/6JOIaHsd mice.
Administration. Cellulose membrane was immersed in a solution of peptides (100 μM). Size of tumor was measured 1, 2, 3, 5 and 7 days following patch treatment. At the same time new patch was applied. All experiments were done in triplicates (3 animals per group).

Human keratinocytes [9] = test: Apoptosis, Annexin V-Cy3 Apoptosis Kit; format: cell-based; details: keratinocyte, modified peptides, conc 10 µM
WM 266-4 [10] = test: WST-1 test (mitochondrial activity); format: cell-based, human; details: modified peptides, conc 10 µM, untreated = 1
Experimental: as §5, with “WST-1 test” for “Apoptosis”, “performed” for “analyzed using Biovision Annexin V-Cy3 Apoptosis Kit according”, “measure mitochondrial activity, which can also be used as a measure of cell number.” for “manufacturers protocols.”

Human keratinocytes [11] = test: WST-1 test (mitochondrial activity); format: cell-based; details: keratinocyte; modified peptides; conc 10 µM; untreated = 1
Experimental: Methods. Human melanoma cell lines SK-MEL-28 and WM 266-4 were obtained from the American Tissue Culture Collection (ATCC) and were cultured according to recommendations of ATCC (DMEM, 10% FCS, penicillin+streptomycin). Human keratinocytes were obtained from Clonetics and cultured according to manufacturers protocol. Cells were used in experiments after two passages in the laboratory. Cells were grown in 24 well plates, each treatment in triplicates. Cells were plated 16 hours prior treatments started. Peptides were added to the media, and media was changed every day during 7 day experiment. […] WST-1 test was performed to measure mitochondrial activity, which can also be used as a measure of cell number.

Human keratinocytes [12] = test: Cell counting after 7 day peptide treatment; format: cell-based; details: keratinocyte, modified peptides, conc 10 µM, start count 10
Experimental: Methods. Human melanoma cell lines SK-MEL-28 and WM 266-4 were obtained from the American Tissue Culture Collection (ATCC) and were cultured according to recommendations of ATCC (DMEM, 10% FCS, penicillin+streptomycin). Human keratinocytes were obtained from Clonetics and cultured according to manufacturers protocol. Cells were used in experiments after two passages in the laboratory. Cells were grown in 24 well plates, each treatment in triplicates. Cells were plated 16 hours prior treatments started. Peptides were added to the media, and media was changed every day during 7 day experiment. CPP concentration was 10 μM. For cell counting, cells were trypsinized (0.25% Trypsin, 2 mM EDTA) in Ca, Mg free PBS. Cells were precipitated and resuspended in 100 μl of PBS, and 5 μl were removed for counting.

[13] = modified (inhibitor/MMP2, MMP9 site) peptides

Row | Sequence | Dct/Trp2 promoter activity (CAT assay) (Dct/Trp2 promoter [1]) | WST-1 7 d (SK-MEL-28 [2]; CPP mimicking peptides) | Apoptosis 7 d/% (WM 266-4 [3]) [%] | Cell Count 7 d (B16 [4]) | Cell Count 7 d (SK-MEL-28 [5]; CPP mimicking peptides) | Dct/Trp2 promoter activity (CAT assay) (Dct/Trp2 promoter [6]) | Cell Count 7 d (WM 266-4 [7]; CPP mimicking peptides) | Apoptosis 7 d/% (B16 [8]) [%] | WST-1 7 d (SK-MEL-28 [2]; modified peptides) | tumor size change (%) 1 d (B16 melanoma) [%] | tumor size change (%) 2 d (B16 melanoma) [%] | tumor size change (%) 3 d (B16 melanoma) [%] | tumor size change (%) 5 d (B16 melanoma) [%] | tumor size change (%) 7 d (B16 melanoma) [%] | Apoptosis 7 d/% (Human keratinocytes [9]) [%] | Cell Count 7 d (SK-MEL-28 [5]; [13]) | WST-1 7 d (WM 266-4 [10]) | WST-1 7 d (Human keratinocytes [11]) | Cell Count 7 d (WM 266-4 [7]; modified peptides) | Cell Count 7 d (Human keratinocytes [12])
1 | RPKKRKVRRRKMQQLEQMLTALDQMRRSIVSELAGLLS [STAT3-int1] | do not have significant effect | 0.79 | 10 | 59 | 40 | do not have significant effect | 34 | 28 |  |  |  |  |  |  |  |  |  |  |  | 
2 | TTGGSSPQGLEAKRPKKRKVRRRVKRPMNAFMVWAQAARRKLADQY [SOX10-int1M] |  |  |  |  |  |  |  |  | 0.72 | 111 | 127 | 146 | 171 | 224 | 6 | 35 | 0.7 | 0.93 | 22 | 37
3 | TTGGSSPQGLEAKRPKKRKVRRRQLMLEPYALDMSRIRVLSESLGLATQSG [Scr-int1M, reference compound] |  |  |  |  |  |  |  |  | 1 | 109 | 147 | 175 | 211 | 272 |  | 48 | 1 | 1 | 30 | 40
